Source: US20020120111A1, “Dwf5 mutants” (priority 2000, published 2002)

Assays:
dwf5-1 plants = test: biochemical complementation of dwf5-1 plants with brassinolide and its biosynthetic intermediates (pedicel length); assay type: in vivo, Arabidopsis; conditions: for dwf5 pedicel length compared to a water-treated control: exogenous application, pedicel length measured 7 days after application (n=15), FIG. 2
Protocol: Standard procedures for plant growth, measurements on floral organs, scoring the number of seeds in a silique, biochemical complementation tests with Brassinosteroids, analysis of endogenous Brassinosteroids, and 13C-labeled mevalonic acid feeding experiments have been described previously (Choe, et al., 1999b). […] The ability of Brassinosteroids to rescue the phenotype of dwf5 was tested. The data presented in FIG. 2 show the biochemical complementation of dwf5-1 plants with brassinolide (BL) and its biosynthetic intermediates. […] The length of pedicels was measured 7 days after application (n=15). Data points represent the average with one standard deviation. Further, the BR biosynthetic intermediate 6-deoxocathasterone (6-DeoxoCT), and the synthetic compound 22-hydroxycampesterol (22-OHCR) induced pedicel growth up to 80% of wild-type length.

dwf5-1 seeds = test: seed germination on agar-solidified Murashige and Skoog media; assay type: in vivo, Arabidopsis; conditions: germination media supplemented with 10^−7 M brassinolide; without it <60% of dwf5-1 seeds germinated vs >90% of wild type
Text: The reduced germination of dwf5 seeds may be a secondary effect of retarded growth, or possibly DWF5 is involved in seed development and/or germination.

SMILES | dwf5 pedicel length compared to a water-treated control (dwf5-1 plants) | rescue of the length of dwf5 pedicels to that of wild type (dwf5-1 plants; BL application) | correction of reduced germination of dwf5 seeds (dwf5-1 seeds)
CC(C)[C@H](C)C[C@H](O)[C@@H](C)[C@H]1CC[C@H]2[C@@H]3CC[C@H]4C[C@@H](O)CC[C@]4(C)[C@H]3CC[C@]12C [6-deoxocathasterone] | significant increases | – | –
CC(C)[C@H](C)C[C@H](O)[C@@H](C)[C@H]1CC[C@H]2[C@@H]3CC=C4C[C@@H](O)CC[C@]4(C)[C@H]3CC[C@]12C [22-hydroxycampesterol] | significant increases | – | –
CC(C)[C@H](C)[C@@H](O)[C@H](O)[C@@H](C)[C@H]1CC[C@H]2[C@@H]3COC(=O)[C@H]4C[C@H](O)[C@H](O)C[C@]4(C)[C@H]3CC[C@]12C [brassinolide] | significant increases | completely rescued | partially corrected
